Assay results: patent US20250346602A1, “LACTAM SUBSTITUTED IMIDAZOPYRIDAZINE IL-17A MODULATORS AND USES THEREOF” (DICE ALPHA, INC., priority 2022, published 2025)

Target: T1, IL-17A/A (Homo sapiens, UniProt Q16552)
T1 construct: purchased Genscript Z03228
T1 sequence (Q16552 24-155): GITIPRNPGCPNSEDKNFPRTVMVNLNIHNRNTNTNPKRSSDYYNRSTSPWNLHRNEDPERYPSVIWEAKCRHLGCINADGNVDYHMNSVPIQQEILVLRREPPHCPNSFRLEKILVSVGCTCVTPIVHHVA
Assay: IL-17A/A HEK-Blue cell assay
Format: cell-based
Settings: HEK-Blue IL-17A reporter cell line (HEK 293), IL-17A/A stimulation, 20 hours incubation, SEAP read at A630
In short: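 HEK293 reporter cells expressing IL-17RA, IL-17RC and Act1 were given titrated compound (top final 10, 1 or 0.3 uM; 0.1% DMSO) right before IL-17A/A and incubated 20 hours. NFκB-driven SEAP in the media was read at A630 with Quanti-Blue, and IC50 came from a 4-parameter nonlinear fit.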

SMILES	IC50 [nM]
CC[C@@H](c1ccc(F)cc1)[C@H](NC(=O)c1ccnn1CC)c1cn2ncc(CC3C[C@@H](C(F)(F)F)NC3=O)cc2n1 (single isomer, unassigned) [Compound 217]	> 1000
O=C(N[C@H](c1cn2nc(CC3C[C@@H](C(F)(F)F)CNC3=O)ccc2n1)C1CCC(F)(F)CC1)c1conc1C(F)(F)F (stereo partly drawn) [Compound 114, N-((1S)-(4,4-difluorocyclohexyl)(6-(((5R)-2-oxo-5-(trifluoromethyl)piperidin-3-yl)methyl)imidazo[1,2-b]pyridazin-2-yl)methyl)-3-(trifluoromethyl)isoxazole-4-carboxamide]	100 to 1000
CCn1nccc1C(=O)N[C@H](c1cn2nc(CC3C[C@H](C(F)(F)F)NC3=O)ccc2n1)C1CCC(F)(F)CC1 (single isomer, unassigned) [Compound 23]	> 1000
CCc1nonc1C(=O)N[C@H](c1cn2nc(CC3C[C@@H](C(F)(F)F)CNC3=O)ccc2n1)[C@H]1CC[C@H](C)CC1 (stereo partly drawn) [Compound 141, 4-Ethyl-N-((1S)-((1R.4S)-4-methylcyclohexyl)(6-(((5R)-2-oxo-5-(trifluoromethyl)piperidin-3-yl)methyl)imidazo[1,2-b]pyridazin-2-yl)methyl)-1,2,5-oxadiazole-3-carboxamide]	< 100
Cn1c(C#N)ccc1C(=O)N[C@H](c1cn2nc(CC3C[C@@H](C(F)(F)F)CNC3=O)ccc2n1)C1CCC(F)(F)CC1 (stereo partly drawn) [Compound 133, 5-cyano-N-((1S)-(4,4-difluorocyclohexyl)(6-(((5R)-2-oxo-5-(trifluoromethyl)piperidin-3-yl)methyl)imidazo[1,2-b]pyridazin-2-yl)methyl)-1-methyl-1H-pyrrole-2-carboxamide]	100 to 1000
CCn1nccc1C(=O)N[C@H](c1cn2nc(CC3CC(C(F)(F)F)CNC3=O)ccc2n1)C1CCCCCC1 (some centres unmarked) [Compound 3, N-((1 S)-cycloheptyl(6-((2-oxo-5-(trifluoromethyl)piperidin-3-yl)methyl)imidazo[1,2-b]pyridazin-2-yl)methyl)-1-ethyl-1H-pyrazole-5-carboxamide]	< 100
CCn1nccc1C(=O)N[C@H](c1cn2nc(CC3C[C@@H](C(F)(F)F)NC3=O)ccc2n1)C1CCCCCC1 (single isomer, unassigned) [Compound 6]	> 1000
CCn1nccc1C(=O)N[C@H](c1cn2nc(CC3CC(F)(F)CNC3=O)ccc2n1)C1CCCCCC1 (single isomer, unassigned) [Compound 10, N-((1 S)-cycloheptyl(6-((5,5-difluoro-2-oxopiperidin-3-yl)methyl)imidazo[1,2-b]pyridazin-2-yl)methyl)-1-ethyl-1H-pyrazole-5-carboxamide]	100 to 1000
O=C(N[C@H](c1cn2nc(CC3C[C@@H](C(F)(F)F)CNC3=O)ccc2n1)C1CCC(F)(F)CC1)c1conc1CF (stereo partly drawn) [Compound 119, N-((1S)-(4,4-difluorocyclohexyl)(6-(((5R)-2-oxo-5-(trifluoromethyl)piperidin-3-yl)methyl)imidazo[1,2-b]pyridazin-2-yl)methyl)-3-(fluoromethyl)isoxazole-4-carboxamide]	100 to 1000
CCn1nccc1C(=O)N[C@H](c1cn2nc(CC3CC(F)(F)CNC3=O)ccc2n1)C1CCC(F)(F)CC1 (single isomer, unassigned) [Compound 24]	> 1000
Cc1n[nH]cc1C(=O)N[C@H](c1cn2nc(CC3C[C@@H](C(F)(F)F)CNC3=O)ccc2n1)C1CCC(F)(F)CC1 (stereo partly drawn) [Compound 135, N-((1S)-(4,4-difluorocyclohexyl)(6-(((5R)-2-oxo-5-(trifluoromethyl)piperidin-3-yl)methyl)imidazo[1,2-b]pyridazin-2-yl)methyl)-3-methyl-1H-pyrazole-4-carboxamide]	> 1000
O=C(N[C@H](c1cn2nc(CC3C[C@@H](C(F)(F)F)CNC3=O)ccc2n1)C1CCC(F)(F)CC1)c1conc1C1CC1(F)F (single isomer, unassigned) [Compound 127]	< 100
CCn1nccc1C(=O)N[C@H](c1cn2nc(CC3CC(C(F)(F)F)CNC3=O)ccc2n1)C1CCCCCC1 (single isomer, unassigned) [Compound 195]	> 1000
CCn1nncc1C(=O)N[C@H](c1cn2nc(CC3C[C@@H](C(F)(F)F)CNC3=O)ccc2n1)C1CCC(F)(F)CC1 (stereo partly drawn) [Compound 108, N-((1S)-(4,4-difluorocyclohexyl)(6-(((5R)-2-oxo-5-(trifluoromethyl)piperidin-3-yl)methyl)imidazo[1,2-b]pyridazin-2-yl)methyl)-1-ethyl-1H-1,2,3-triazole-5-carboxamide]	100 to 1000
O=C(N[C@H](c1cn2nc(CC3C[C@@H](C(F)(F)F)CNC3=O)ccc2n1)[C@H]1CCCC(F)(F)C1)c1conc1C1CC1 (stereo partly drawn) [Compound 146, 3-cyclopropyl-N-((1S)—((S)-3,3-difluorocyclohexyl)(6-(((5R)-2-oxo-5-(trifluoromethyl)piperidin-3-yl)methyl)imidazo[1,2-b]pyridazin-2-yl)methyl)isoxazole-4-carboxamide]	< 100
CCn1nccc1C(=O)N[C@H](c1cn2nc(CC3CCNC3=O)ccc2n1)C1CCCCCC1 (single isomer, unassigned) [Compound 4]	100 to 1000
CCn1nccc1C(=O)N[C@H](c1cn2nc(CC3C[C@@H](C(F)(F)F)CNC3=O)c(Cl)cc2n1)C1CCC(F)(F)CC1 (single isomer, unassigned) [Compound 80]	100 to 1000
CCn1nccc1C(=O)NC(c1cn2nc(CC3C(=O)NCC4CC43)ccc2n1)C1CCC(C)CC1 (single isomer, unassigned) [Compound 47]	> 1000
CCn1nccc1C(=O)N[C@H](c1cn2nc(CC3C[C@@H](C(F)(F)F)CNC3=O)c(N(C)C3CCOCC3)cc2n1)C1CCC(F)(F)CC1 (single isomer, unassigned) [Compound 94]	< 100
O=C(N[C@H](c1cn2nc(CC3C[C@@H](C(F)(F)F)CNC3=O)ccc2n1)[C@H]1CCCC(F)(F)C1)c1nonc1C1CC1 (stereo partly drawn) [Compound 144, 4-cyclopropyl-N—((S)-((S)-3,3-difluorocyclohexyl)(6-(((5R)-2-oxo-5-(trifluoromethyl)piperidin-3-yl)methyl)imidazo[1,2-b]pyridazin-2-yl)methyl)-1,2,5-oxadiazole-3-carboxamide]	< 100
CCn1nccc1C(=O)N[C@H](c1cn2nc(CC3CC(CC(F)(F)F)CNC3=O)ccc2n1)C1CCC(F)(F)CC1 (single isomer, unassigned) [Compound 66]	100 to 1000
CCn1nccc1C(=O)N[C@H](c1cn2nc(CC3C[C@@H](C(F)(F)F)CNC3=O)ccc2n1)[C@H]1CCCC(F)(F)C1 (stereo partly drawn) [Compound 142, N-((1S)—((S)-3,3-difluorocyclohexyl)(6-(((5R)-2-oxo-5-(trifluoromethyl)piperidin-3-yl)methyl)imidazo[1,2-b]pyridazin-2-yl)methyl)-1-ethyl-1H-pyrazole-5-carboxamide]	< 100
CCn1nccc1C(=O)N[C@H](c1cn2nc(CC3C[C@@H](C(F)(F)F)CNC3=O)ccc2n1)C1CC2(C1)CC(F)(F)C2 (single isomer, unassigned) [Compound 173]	100 to 1000
CC(C)c1nonc1C(=O)N[C@H](c1cn2nc(CC3C[C@@H](C(F)(F)F)CNC3=O)ccc2n1)C1CCC(F)(F)CC1 (stereo partly drawn) [Compound 117, N-((1S)-(4,4-difluorocyclohexyl)(6-(((5R)-2-oxo-5-(trifluoromethyl)piperidin-3-yl)methyl)imidazo[1,2-b]pyridazin-2-yl)methyl)-4-isopropyl-1,2,5-oxadiazole-3-carboxamide]	< 100
CC1(c2nocc2C(=O)N[C@H](c2cn3nc(CC4C[C@@H](C(F)(F)F)CNC4=O)ccc3n2)C2CCC(F)(F)CC2)CC1 (stereo partly drawn) [Compound 123, N-((1S)-(4,4-difluorocyclohexyl)(6-(((5R)-2-oxo-5-(trifluoromethyl)piperidin-3-yl)methyl)imidazo[1,2-b]pyridazin-2-yl)methyl)-3-(1-methylcyclopropyl)isoxazole-4-carboxamide]	100 to 1000
CCn1nccc1C(=O)N[C@H](c1cn2nc(CC3CC4(CC4)NC3=O)ccc2n1)C(C1CC1)C1CC1 (stereo partly drawn) [Compound 60, N-((1S)-2,2-dicyclopropyl-1-(6-((5-oxo-4-azaspiro[2.4]heptan-6-yl)methyl)imidazo[1,2-b]pyridazin-2-yl)ethyl)-1-ethyl-1H-pyrazole-5-carboxamide]	100 to 1000
CCn1nccc1C(=O)N[C@H](c1cn2nc(CC3C[C@@H](C(F)(F)F)CNC3=O)c(OC(C)C)cc2n1)C1CCC(F)(F)CC1 (stereo partly drawn) [Compound 185, N-((1S)-(4,4-difluorocyclohexyl)(7-isopropoxy-6-(((5R)-2-oxo-5-(trifluoromethyl)piperidin-3-yl)methyl)imidazo[1,2-b]pyridazin-2-yl)methyl)-1-ethyl-1H-pyrazole-5-carboxamide]	< 100
CC(C)c1nonc1C(=O)N[C@H](c1cn2nc(CC3C[C@@H](C(F)(F)F)CNC3=O)ccc2n1)[C@@H]1CCCC(F)(F)C1 (stereo partly drawn) [Compound 151, N-((1S)—((R)-3,3-difluorocyclohexyl)(6-(((5R)-2-oxo-5-(trifluoromethyl)piperidin-3-yl)methyl)imidazo[1,2-b]pyridazin-2-yl)methyl)-4-isopropyl-1,2,5-oxadiazole-3-carboxamide]	< 100
CCn1nccc1C(=O)N[C@H](c1cn2nc(CC3C[C@H](C(F)(F)F)CNC3=O)ccc2n1)C(C1CC1)C1CC1 (stereo partly drawn) [Compound 153, N-((1S)-2,2-dicyclopropyl-1-(6-(((5S)-2-oxo-5-(trifluoromethyl)piperidin-3-yl)methyl)imidazo[1,2-b]pyridazin-2-yl)ethyl)-1-ethyl-1H-pyrazole-5-carboxamide]	100 to 1000
